Measured values reported in patent US8357655B2, “Wound healing peptides and methods of use thereof” (Tufts University, priority 2008, dated 2013).

How the values were obtained:
Format in all cases: cell-based
endothelial cells = test: endothelial cell proliferation assay; conditions: peptide at 1 nM; control cultures in 5% BCS DMEM (FIG. 5)
Protocol: The WHPs provided herein induce endothelial cell proliferation. […] Endothelial cells were plated at subconfluent concentrations and allowed to attach, then new culture media was provided in the presence or absence of a WHP; control cultures were grown in 5% BCS DMEM.

[1] = system: human epidermal-derived keratinocytes; test: in vitro wound healing assay, keratinocyte post-injury motility; conditions: compared with HbEGF, growth factor known to be migration-inducing in keratinocytes (FIG. 2)
Protocol: Referring to FIG. 2, an in vitro wound healing assay was performed to compare the wound healing properties of two WHPs, SEQ ID NO: 3 and SEQ ID NO: 9, with a known potentiator of keratinocyte migration, heparin-binding EGF-like growth factor (HbEGF). In these experiments, confluent densities of human epidermal-derived keratinocytes were plated in vitro in defined media lacking WHPs or positive control substances. At time zero, all cultures are wounded mechanically and imaging of wounds was accomplished automatically using computer-assisted light microscope imaging. Cell cultures were injured mechanically by removing defined zones of living cells were then washed and test agents or control substances delivered. Cells recovering from injury were than quantifiably monitored using computer-assisted imaging and light microscopy. Post-injury motility was assessed using the migratory response of untreated injured cultures as a baseline for quantitative comparative analysis. Multiple experiments with multiple replicates are shown, standard deviation with error of the mean.

[2] = in vitro injury model, dose dependence; conditions: concentrations ranging from 1 to 1000 nM (FIG. 3)
Protocol: Referring to FIG. 3, the WHPs provided herein act in dose-dependent manner. A WHP, SEQ ID NO: 9, was provided in an in vitro injury model at concentrations ranging from 1 to 1000 nM.

[3] = system: capillary endothelial cells; test: in vitro wound healing assay, capillary endothelial cell migration; conditions: one and two hours post-injury; WHP 0.5 nM to 0.2 mM in DMEM with 1% bovine calf serum; vs control cultures (FIG. 1)
Protocol: In this assay, capillary endothelial cells were plated on tissue culture plastic and allowed to form a confluent monolayer. The monolayer was mechanically disrupted and non-adherent cells were removed, at which point the WHP was provided at a concentration within the range of sub-nanomolar (0.5 nM) to sub-millimolar (0.2 mM) in tissue culture media (DMEM with 1% bovine calf serum. Control cultures were incubated with serum alone, positive control test substances, e.g. basic fibroblast growth factor (bFGF viz, FGF2) and vascular endothelial growth factor (VEGF) (for capillary-derived endothelial cells); or heparin-binding epidermal-like growth factor (Hb-EGF) (for human skin derived keratinocytes). Other control cultures were incubated with either no peptide or a random peptide without wound healing or proliferative properties. The extent of endothelial cell migration in the WHP and control cultures was observationally determined at various time points following injury (e.g., thirty minutes, one hour, two hours, or more than two hours).

[4] = system: capillary endothelial cells; test: in vitro capillary morphogenesis (angiogenesis) assay; conditions: cells embedded in ECM-derived three-dimensional matrix, incubated twenty hours (FIG. 4)
Protocol: The WHPs provided herein are also useful in the promotion of capillary morphogenesis. […] Specifically, isolated capillary endothelial cells were embedded in an ECM-derived three-dimensional matrix that contained a WHP at a range of concentrations from the nanomolar (nM) to sub-millimolar (mM) (e.g., between 0.5 nM-0.2 mM) and incubated. […] In comparison, negative control cell populations (i.e., cells that were not exposed to a WHP but were exposed to serum containing media, which contains growth factors and other angiogenesis inducers) generally remained as individual cells during this timeframe at this population density.

| Substance | endothelial cell proliferation (endothelial cells) | keratinocyte post-injury motility [1] | wound healing activity, dose dependence [2] | endothelial cell migration into the wound site [3] | formation of capillary tube like structures / in vitro angiogenesis [4] |
| --- | --- | --- | --- | --- | --- |
| DINECEIGAPAGEETEVTVEGLEPG [SEQ ID NO: 3] | increase in endothelial cell proliferation | equal or superior to the growth factor |  |  |  |
| DINECELSANL [SEQ ID NO: 9] | increase in endothelial cell proliferation | equal or superior to the growth factor | dose-dependent | substantially greater migration into the wound site |  |
| bFGF: basic fibroblast growth factor, positive control growth factor |  |  |  |  | able to promote in vitro angiogenesis to a lesser extent than populations treated with a WHP |
